According to patent US20240269139A1, “COMPOUNDS FOR TARGETED PROTEIN DEGRADATION OF KINASES” (DANA-FARBER CANCER INSTITUTE, INC., priority 2020, published 2024):
Read-outs that look alike come from different tables or passages of the source.

Columns and labels:
[1] = molecular target: protein kinases (human kinome) (Homo sapiens, UniProt Q00534); type: cell-based; conditions: for logFC CDK6: CDK6 (Q00534), direction down; for logFC of CDK6 (Q00534): down
[2] = molecular target: T1, protein kinases (human kinome) (Homo sapiens, UniProt Q9NYY8); type: cell-based; conditions: direction down
T1 sequence (Q9NYY8 1-710): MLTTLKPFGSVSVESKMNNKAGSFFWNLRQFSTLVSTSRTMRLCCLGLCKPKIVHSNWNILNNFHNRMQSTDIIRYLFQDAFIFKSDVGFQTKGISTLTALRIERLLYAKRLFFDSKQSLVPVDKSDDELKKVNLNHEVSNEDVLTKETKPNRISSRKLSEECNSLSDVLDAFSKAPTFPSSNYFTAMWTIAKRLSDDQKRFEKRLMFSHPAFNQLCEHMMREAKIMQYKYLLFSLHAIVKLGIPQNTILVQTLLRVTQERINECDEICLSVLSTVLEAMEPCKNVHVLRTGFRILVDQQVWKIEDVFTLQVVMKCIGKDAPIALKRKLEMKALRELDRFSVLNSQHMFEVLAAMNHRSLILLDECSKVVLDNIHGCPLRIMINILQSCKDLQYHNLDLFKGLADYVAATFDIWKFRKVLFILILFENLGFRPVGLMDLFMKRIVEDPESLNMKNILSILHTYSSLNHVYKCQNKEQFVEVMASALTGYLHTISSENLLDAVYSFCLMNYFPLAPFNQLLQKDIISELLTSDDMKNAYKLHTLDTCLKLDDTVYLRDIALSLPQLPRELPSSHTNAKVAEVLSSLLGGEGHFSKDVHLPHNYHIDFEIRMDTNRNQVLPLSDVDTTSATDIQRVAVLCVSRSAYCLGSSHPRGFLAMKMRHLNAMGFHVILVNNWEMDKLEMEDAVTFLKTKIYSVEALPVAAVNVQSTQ

[3] = molecular target: protein kinases (human kinome) (Homo sapiens, UniProt P30291); type: cell-based; conditions: experiment wp084
Sequence of protein kinases (human kinome) (Homo sapiens, UniProt P30291) (P30291 whole entry): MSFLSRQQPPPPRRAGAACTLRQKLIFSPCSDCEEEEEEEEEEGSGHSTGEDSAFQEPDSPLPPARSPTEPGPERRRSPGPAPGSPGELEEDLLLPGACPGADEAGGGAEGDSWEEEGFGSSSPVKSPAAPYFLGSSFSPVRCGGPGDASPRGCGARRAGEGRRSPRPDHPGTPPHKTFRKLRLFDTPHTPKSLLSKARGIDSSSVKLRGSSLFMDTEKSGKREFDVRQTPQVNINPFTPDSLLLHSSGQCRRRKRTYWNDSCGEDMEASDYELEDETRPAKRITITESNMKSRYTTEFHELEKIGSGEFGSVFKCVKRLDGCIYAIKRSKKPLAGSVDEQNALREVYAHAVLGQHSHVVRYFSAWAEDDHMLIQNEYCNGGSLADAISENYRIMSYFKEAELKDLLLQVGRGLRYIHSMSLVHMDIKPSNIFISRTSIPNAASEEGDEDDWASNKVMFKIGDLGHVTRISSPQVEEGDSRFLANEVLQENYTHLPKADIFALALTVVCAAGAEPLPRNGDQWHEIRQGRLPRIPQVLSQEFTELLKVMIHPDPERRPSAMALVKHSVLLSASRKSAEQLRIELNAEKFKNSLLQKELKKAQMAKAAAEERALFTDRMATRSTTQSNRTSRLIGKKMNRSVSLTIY

[4] = molecular target: protein kinases (human kinome) (Homo sapiens, UniProt P11802); type: cell-based
Sequence of protein kinases (human kinome) (Homo sapiens, UniProt P11802) (P11802 whole entry): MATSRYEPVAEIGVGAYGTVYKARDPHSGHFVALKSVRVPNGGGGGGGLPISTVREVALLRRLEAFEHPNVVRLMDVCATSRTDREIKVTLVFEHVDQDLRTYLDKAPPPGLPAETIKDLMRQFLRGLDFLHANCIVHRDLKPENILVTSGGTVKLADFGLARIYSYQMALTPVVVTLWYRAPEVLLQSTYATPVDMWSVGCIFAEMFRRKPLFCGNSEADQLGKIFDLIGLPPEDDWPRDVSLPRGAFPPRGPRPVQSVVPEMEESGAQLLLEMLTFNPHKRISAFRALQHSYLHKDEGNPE

[5] = molecular target: T2, extended human kinome (kinase-like proteins) (Homo sapiens, UniProt P54886); test: Whole cell quantitative proteomics: extended kinome hits; conditions: Accession P54886
T2 sequence (P54886 1-795): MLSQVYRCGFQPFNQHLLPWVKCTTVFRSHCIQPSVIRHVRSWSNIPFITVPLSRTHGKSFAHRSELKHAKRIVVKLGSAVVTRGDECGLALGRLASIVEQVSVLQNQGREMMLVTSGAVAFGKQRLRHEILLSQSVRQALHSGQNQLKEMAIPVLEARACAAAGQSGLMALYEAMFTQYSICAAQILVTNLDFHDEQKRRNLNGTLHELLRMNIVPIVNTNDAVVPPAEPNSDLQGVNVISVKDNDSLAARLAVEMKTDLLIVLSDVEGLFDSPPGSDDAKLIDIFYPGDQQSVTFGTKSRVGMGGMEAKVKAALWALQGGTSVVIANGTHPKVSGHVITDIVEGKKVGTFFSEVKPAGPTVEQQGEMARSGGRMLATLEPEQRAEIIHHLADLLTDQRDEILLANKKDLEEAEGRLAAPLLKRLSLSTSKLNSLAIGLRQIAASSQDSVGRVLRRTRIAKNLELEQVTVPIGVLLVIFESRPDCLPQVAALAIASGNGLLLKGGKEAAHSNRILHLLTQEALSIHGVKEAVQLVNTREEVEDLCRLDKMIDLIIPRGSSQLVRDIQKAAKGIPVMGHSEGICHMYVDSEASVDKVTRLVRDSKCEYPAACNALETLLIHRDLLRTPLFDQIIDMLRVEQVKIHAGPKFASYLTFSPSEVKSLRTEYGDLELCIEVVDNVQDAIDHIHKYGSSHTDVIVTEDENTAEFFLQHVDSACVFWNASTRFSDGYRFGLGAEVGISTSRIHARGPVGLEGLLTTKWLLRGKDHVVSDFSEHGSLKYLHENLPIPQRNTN

Sequence of protein kinases (human kinome) (Homo sapiens, UniProt Q00534) (Q00534 whole entry): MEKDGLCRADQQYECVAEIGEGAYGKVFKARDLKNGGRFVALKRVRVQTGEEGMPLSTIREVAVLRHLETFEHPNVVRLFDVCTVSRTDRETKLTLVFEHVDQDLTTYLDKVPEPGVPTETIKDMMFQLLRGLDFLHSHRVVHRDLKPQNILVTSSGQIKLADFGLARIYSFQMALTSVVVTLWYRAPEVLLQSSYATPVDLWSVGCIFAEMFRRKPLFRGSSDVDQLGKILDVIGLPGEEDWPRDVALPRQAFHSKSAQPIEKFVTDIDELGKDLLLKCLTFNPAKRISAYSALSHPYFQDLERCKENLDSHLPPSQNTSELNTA

SMILES: CC(=O)c1c(C)c2cnc(Nc3ccc(N4CCN(CCOCCOCCOCCNC(=O)COc5cccc6c5C(=O)N(C5CCC(=O)NC5=O)C6=O)CC4)cn3)nc2n(C2CCCC2)c1=O (stereo not shown) [BSJ.03.123]
- logFC CDK6 ([1]; experiment wp084): −3.058
- logFC of CDK6 (Q00534) ([1]; Experiment wp084): −3.058
- logFC FASTKD2 (Q9NYY8) ([2]; Experiment wp084): −0.51
- logFC of WEE1 ([3]; WEE1 P30291-1): −0.3883
- logFC WEE1 (P30291-1) [3]: −0.3883
- logFC CDK4 (P11802) ([4]; experiment wp084): −0.9496
- logFC ALDH18A1 ([5]; experiment wp084): −0.5282

SMILES: CN(C)C(=O)c1cc2cnc(Nc3ccc(N4CCN(CCCCNC(=O)COc5cccc6c5C(=O)N(C5CCC(=O)NC5=O)C6=O)CC4)cn3)nc2n1C1CCCC1 (stereo not shown) [BSJ.04.132]
- logFC CDK6 ([1]; experiment wp084): −0.7531
- logFC of CDK6 (Q00534) ([1]; Experiment wp084): −0.7531
- logFC FASTKD2 (Q9NYY8) ([2]; Experiment wp084): −0.5107
- logFC CDK4 (P11802) ([4]; experiment wp084): −0.9046
- logFC ALDH18A1 ([5]; experiment wp084): −0.6568

SMILES: CC(C)(C)c1nc(-c2cccc(NS(=O)(=O)c3c(F)cccc3F)c2F)c(-c2ccnc(NCCOCCNC(=O)CCOCCOCCNc3cccc4c3C(=O)N(C3CCC(=O)NC3=O)C4=O)n2)s1 (stereo not shown) [DD.03.106]
- logFC CDK6 ([1]; experiment wp047): −1.086
- logFC CDK6 ([1]; experiment wp137): −1.083
- logFC CDK6 ([1]; experiment wp147, 1 uM): −0.8934
- logFC CDK6 ([1]; experiment wp147, 2 uM): −1.348
- logFC CDK6 ([1]; experiment wp147, 4 uM): −1.159
- logFC of CDK6 (Q00534) ([1]; Experiment wp047): −1.086
- logFC of CDK6 (Q00534) ([1]; Experiment wp137): −1.083
- logFC of CDK6 (Q00534) ([1]; Experiment wp147, 1 uM): −0.8934
- logFC of CDK6 (Q00534) ([1]; Experiment wp147, 2 uM): −1.348
- logFC of CDK6 (Q00534) ([1]; Experiment wp147, 4 uM): −1.159
- logFC FASTKD2 (Q9NYY8) ([2]; Experiment wp147, 2 uM): −0.3392
- logFC FASTKD2 (Q9NYY8) ([2]; Experiment wp147, 4 uM): −0.9073
- logFC CDK4 (P11802) ([4]; experiment wp047): −0.9277
- logFC CDK4 (P11802) ([4]; experiment wp137): −0.8885
- logFC CDK4 (P11802) ([4]; experiment wp147, 1 uM): −0.6961
- logFC CDK4 (P11802) ([4]; experiment wp147, 2 uM): −0.9835
- logFC CDK4 (P11802) ([4]; experiment wp147, 4 uM): −0.726
- logFC ALDH18A1 ([5]; experiment wp147, 1 uM): −0.3463
- logFC ALDH18A1 ([5]; experiment wp147, 4 uM): −0.8823
